PubChem BioAssay AID2060491 (Molecular Pharmacology Branch, DTP, NCI, 2025)

System: 857933-349-R-J2-PDC complex spheroids, viability
Assay: Anticancer human tumor 857933-349-R-J2-PDC patient-derived colon adenocarcinoma cell line growth inhibition [GQUAD]
Conditions: for IC50: curve of first compound; for viability, T/C: stronger effect = lower value
Procedure, shortened: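 Viability of tumor cells grown as complex spheroids with endothelial and stromal cells, exposed to drug combinations. Top concentration at or near clinical Cmax (else 10 microM), diluted in half-log increments.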
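Also: spheroids exposed to compounds for one week before readout.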
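For viability, T/C in this document: percent viability relative to vehicle DMSO wells taken as 100%.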

- IC50 (second compound 0.0316 µM): > 10000 nM
- IC50 (second compound 0.1 µM): > 10000 nM
- IC50 (second compound 0.316 µM): < 31.6 nM
- IC50 (second compound 1 µM): < 31.6 nM
- IC50 (second compound 3.16 µM): < 31.6 nM
- IC50 (second compound 10 µM): < 31.6 nM
SMILES: C=CC(=O)N1CCN(c2nc(=O)n(-c3c(C)ccnc3C(C)C)c3nc(-c4c(O)cccc4F)c(F)cc23)C(C)C1 (configuration not stated) + Cc1cnc(CNC(=O)c2c(=O)c3ccc(N4CCCN(C)CC4)nc3n3c2sc2ccccc23)cn1
- viability, T/C (second compound 0.0316 µM, first compound 0.0316 µM): 106%
- viability, T/C (second compound 0.0316 µM, first compound 0.1 µM): 85.1%
- viability, T/C (second compound 0.0316 µM, first compound 0.316 µM): 91.4%
- viability, T/C (second compound 0.0316 µM, first compound 1 µM): 88.1%
- viability, T/C (second compound 0.0316 µM, first compound 3.16 µM): 111%
- viability, T/C (second compound 0.0316 µM, first compound 10 µM): 79.3%
- viability, T/C (second compound 0.1 µM, first compound 0.0316 µM): 59.7%
- viability, T/C (second compound 0.1 µM, first compound 0.1 µM): 69.3%
- viability, T/C (second compound 0.1 µM, first compound 0.316 µM): 64.4%
- viability, T/C (second compound 0.1 µM, first compound 1 µM): 73%
- viability, T/C (second compound 0.1 µM, first compound 3.16 µM): 78.2%
- viability, T/C (second compound 0.1 µM, first compound 10 µM): 67%
- viability, T/C (second compound 0.316 µM, first compound 0.0316 µM): 19.7%
- viability, T/C (second compound 0.316 µM, first compound 0.1 µM): 25.7%
- viability, T/C (second compound 0.316 µM, first compound 0.316 µM): 26.4%
- viability, T/C (second compound 0.316 µM, first compound 1 µM): 22.1%
- viability, T/C (second compound 0.316 µM, first compound 3.16 µM): 34.4%
- viability, T/C (second compound 0.316 µM, first compound 10 µM): 30.8%
- viability, T/C (second compound 1 µM, first compound 0.0316 µM): 4.37%
- viability, T/C (second compound 1 µM, first compound 0.1 µM): 5.36%
- viability, T/C (second compound 1 µM, first compound 0.316 µM): 4.38%
- viability, T/C (second compound 1 µM, first compound 1 µM): 4.4%
- viability, T/C (second compound 1 µM, first compound 3.16 µM): 4.7%
- viability, T/C (second compound 1 µM, first compound 10 µM): 5.94%
- viability, T/C (second compound 3.16 µM, first compound 0.0316 µM): 2.59%
- viability, T/C (second compound 3.16 µM, first compound 0.1 µM): 2.48%
- viability, T/C (second compound 3.16 µM, first compound 0.316 µM): 2.57%
- viability, T/C (second compound 3.16 µM, first compound 1 µM): 3.03%
- viability, T/C (second compound 3.16 µM, first compound 3.16 µM): 3.31%
- viability, T/C (second compound 3.16 µM, first compound 10 µM): 2.69%
- viability, T/C (second compound 10 µM, first compound 0.0316 µM): 1.16%
- viability, T/C (second compound 10 µM, first compound 0.1 µM): 1.17%
- viability, T/C (second compound 10 µM, first compound 0.316 µM): 1.22%
- viability, T/C (second compound 10 µM, first compound 1 µM): 1.56%
- viability, T/C (second compound 10 µM, first compound 3.16 µM): 1.95%
- viability, T/C (second compound 10 µM, first compound 10 µM): 1.37%
